Test [1] deals with Keap1 Kelch domain (KKD) (Homo sapiens, UniProt Q14145). Put plainly: Keap1 Kelch domain direct binding assay.
The target of test [2] is Shh. The following applies: read-out: KD (Shh); cited from earlier work.
For test [3], the target named is Sonic Hedgehog construct with N-terminal poly-His tag and TEV-cleavable linker ("Shh") (UniProt Q15465). The test is described as follows: ELISA. (In general: ELISA stands for enzyme-linked immunosorbent assay.)
The target in test [4] is Sonic Hedgehog (Shh) (Homo sapiens, UniProt Q15465). Put plainly: Shh binding assay.
In test [5] the target is HHIP L2 linear peptide L2 loop (Homo sapiens) (UniProt Q96QV1). The conditions noted are these: cited from earlier work.
Test [6] has as its target Kelch domain of Kelch-like ECH-associated protein 1 (Keap1). Put plainly: ELISA.

What is called Kd is the free concentration of one partner at which half of the binding sites on the other are occupied at equilibrium, for simple one-to-one binding.

Numbered stars: 1 amine (or outer) side, 2 acyl side, 3 side chain; on linkers, the order of the positions; unused ones are H or OH. Bridge positions count the residues as written; N and C are the ends. Square brackets hold non-standard residues; d marks the D form. Ends that are not written are not given here. Peptide text beside a SMILES is read from it. CH2CH2 = C(C[*:2])[*:1]

Keap1 Kelch domain (KKD), sequence (Q14145 321-609 limits assumed): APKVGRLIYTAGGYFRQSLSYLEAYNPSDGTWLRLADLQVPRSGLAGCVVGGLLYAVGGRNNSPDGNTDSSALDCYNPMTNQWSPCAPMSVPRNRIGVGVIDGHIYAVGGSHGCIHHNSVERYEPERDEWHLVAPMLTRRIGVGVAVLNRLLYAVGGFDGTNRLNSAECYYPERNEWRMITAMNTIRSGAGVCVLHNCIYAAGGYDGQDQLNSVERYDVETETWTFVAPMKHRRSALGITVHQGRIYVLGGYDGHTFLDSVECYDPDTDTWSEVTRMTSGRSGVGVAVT

Regarding “cyclo[Y*D(X)ETGEC] (sidechain bridge or staple) [KKD(6X)-m1]”, the “fold higher affinity vs KKD-m1” value in test [1] is given as approximately 3 fold.
“TLSW(Y*)EAMDMCTD (sidechain bridge or staple) [HL2-m5]”: the Kd in test [2] is 170 nM.
“cyclo[Y*D(X)ETGEC] (sidechain bridge or staple) [KKD(6X)-m2]”: the “fold higher affinity vs KKD-m1” value in test [1] was approximately 3 fold.
The molecule “cyclic version of the HHIP L2 sequence (from UniProt Q96QV1 375-387) (peptide)” displayed a Kd in test [3] of 3.6 µM.
On to `O=C(C[C@@H]1C/C=C/CCC(=O)O[C@H](c2ccccc2)CNC1=O)NCc1ccc(Cl)cc1` [robotnikinin], for which the Kd in test [2] is 3100 nM.
`CSCC[C@@H]1NC(=O)[C@H](CCC(=O)O)NC(=O)[C@H](CCC(=O)O)NC(=O)[C@@H](NC(=O)[C@H](CC(=O)O)NC(=O)[C@H](CC(=O)O)NC(=O)[C@H](CC(C)C)NC(=O)[C@@H](NC(=O)[C@H](CO)NC(=O)CNC(=O)[C@H](CO)NC(=O)CNC(=O)[C@H](CCCCN)NC(=O)[C@H](CC(=O)O)NC(=O)[C@H](CC(=O)O)NC(=O)[C@H](CC(=O)O)NC(=O)[C@H](CC(=O)O)NC(=O)[C@H](CCCCN)NC(=O)[C@H](Cc2ccc(O)cc2)NC(=O)[C@H](CC(=O)O)NC(=O)[C@@H](N)CCSC)[C@@H](C)O)Cc2ccc(cc2)OCCSC[C@@H](C(=O)N[C@@H](CO)C(=O)N[C@@H](CC(=O)O)C(=O)N[C@H](C(=O)O)[C@@H](C)O)NC(=O)CNC(=O)[C@H](CC(=O)O)NC1=O` [cyclic version of the HHIP L2 sequence] (H-MDYKDDDDKGSGSTLDDYEEMDGCSDT-OH; linker 18-24 via CH2CH2; C-terminus assumed): in test [4], the “fold lower affinity vs Shh-m1” value is reported as approximately 7 fold.
Turning to `CSCC[C@@H]1NC(=O)[C@H](C)NC(=O)[C@H](CCC(=O)O)NC(=O)[C@@H](NC(=O)[C@@H]2CCCN2C(=O)[C@H](CO)NC(=O)[C@H](CO)NC(=O)CNC(=O)[C@H](CO)NC(=O)CNC(=O)[C@H](CO)NC(=O)CNC(=O)[C@H](CCCCN)NC(=O)[C@H](CC(=O)O)NC(=O)[C@H](CC(=O)O)NC(=O)[C@H](CC(=O)O)NC(=O)[C@H](CC(=O)O)NC(=O)[C@H](CCCCN)NC(=O)[C@H](Cc2ccc(O)cc2)NC(=O)[C@H](CC(=O)O)NC(=O)[C@@H](N)CCSC)Cc2ccc(cc2)OCCSC[C@@H](C(=O)N[C@H](C(=O)N[C@@H](CC(=O)O)C(=O)N[C@H](C(=O)O)[C@@H](C)O)[C@@H](C)O)NC(=O)[C@H](CCSC)NC(=O)[C@H](CC(=O)O)NC1=O` [Shh-m1] (H-MDYKDDDDKGSGSGSSPYEAMDMCTDT-OH; linker 18-24 via CH2CH2; N-terminus and C-terminus assumed), binding in test [4] was put at a Kd of 550 nM.
Consider Sonic Hedgehog (from UniProt Q15465), for which, in test [5], the Kd is 150 µM.
Molecule [O2beY]DIETGEC (thioether 1-8) [KKD(6X)-m2] came in with a Kd in test [6] of 40 nM.
Same read-out and setting: next, [O2beY]DAETGEC (thioether 1-8) [KKD(6X)-m1]: 40 nM.

(Values after publication PMC7099587 (ACS Central Science, 2020).)
